Laboratory results reported in patent US11407763B2, “Tryptophan hydroxylase inhibitor and pharmaceutical composition including same” (GWANGJU INSTITUTE OF SCIENCE AND TECHNOLOGY, priority 2017, dated 2022).
Counter-ions that a name gives are not always drawn.

Molecular target: TPH1 (tryptophan hydroxylase 1) (Homo sapiens (Human), UniProt P17752)
Experiment: TPH1 inhibitor screening assay kit (BPS Bioscience), fluorescence
Assay type: biochemical
Conditions: TPH1
Procedure: In order to confirm the inhibitory effect of the compound represented by formula 1 according to the present invention on the tryptophan hydroxylase activity, it was measured using a TPH1 (tryptophan hydroxylase 1) inhibitor screening assay kit (BPS Bioscience, Catalog #72053). The TPH1 inhibitor screening assay kit was used according to the manufacturer's manual.
Particularly, the synthesized compound was dissolved in DMSO, which was added to a 96-well microplate (10 ? /well), to which TPH1 enzyme was added (40 ? /well). Then, TPH1 reaction solution was added to the microplate (50 ? /well) and the microplate was shaded with aluminum foil. The microplate was transferred to 4° C. environment, shaken carefully and incubated for 4 hours. After adding a quench solution to the microplate (10 ? /well), the TPH1 activity was measured by reading the degree of fluorescence color development with a Flexstation3 microplate reader. At this time, the excitation spectrum was 300 nm and the emission spectrum was 360 nm.

Chain of TPH1 (tryptophan hydroxylase 1) (P17752 whole entry): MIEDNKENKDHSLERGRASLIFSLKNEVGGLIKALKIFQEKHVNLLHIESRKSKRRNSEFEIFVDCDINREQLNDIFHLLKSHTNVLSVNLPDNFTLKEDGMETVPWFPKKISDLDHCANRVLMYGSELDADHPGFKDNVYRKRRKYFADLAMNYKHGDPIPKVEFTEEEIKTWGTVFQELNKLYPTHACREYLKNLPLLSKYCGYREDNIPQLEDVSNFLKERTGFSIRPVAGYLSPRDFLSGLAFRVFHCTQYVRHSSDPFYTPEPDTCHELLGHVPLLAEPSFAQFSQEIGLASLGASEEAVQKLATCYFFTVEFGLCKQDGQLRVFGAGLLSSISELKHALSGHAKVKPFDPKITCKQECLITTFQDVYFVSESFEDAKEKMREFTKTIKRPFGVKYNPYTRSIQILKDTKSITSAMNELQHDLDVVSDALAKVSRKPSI

IC50 | Structure (SMILES)
0.036 µM | Cc1ccn(-c2cc(Cl)ccc2[C@@H](Oc2ncnc3c(-c4ccc(C[C@H](N)C(=O)O)cc4)csc23)C(F)(F)F)n1 [Example 8, (S)-2-amino-3-(4-(4-((R)-1-(4-chloro-2-(3-methyl-1H-pyrazole-1-yl)phenyl)-2,2,2-trifluoroethoxy)thieno[3,2-d]pyrimidine-7-yl)phenyl)propionic acid hydrochloride]
0.091 µM | Nc1nc(O[C@H](c2ccc(Cl)cc2C2=CCCOC2)C(F)(F)F)cc(C2=CCC(C[C@H](N)C(=O)O)CC2)n1 (stereo partly drawn) [Example 67, (2S)-2-amino-3-(4-(2-amino-6-((R)-1-(4-chloro-2-(5,6-dihydro-2H-pyran-3-yl)phenyl)-2,2,2-trifluoroethoxy)pyrimidine-4-yl)cyclohex-3-ene-1-yl)propionic acid]

Same assay, conditions: TPH1 enzyme, 4 hours at 4° C., ex 300 nm / em 360 nm

Structure (SMILES) | IC50
N[C@@H](Cc1ccc(-c2csc3c(O[C@H](c4ccc(Cl)cc4-c4cccc(F)c4)C(F)(F)F)ncnc23)cc1)C(=O)O [Example 24, (S)-2-amino-3-(4-(4-((R)-1-(5-chloro-3′-fluoro-[1,1′-biphenyl]-2-yl)-2,2,2-trifluoroethoxy)thieno[3,2-d]pyrimidine-7-yl)phenyl)propionic acid hydrochloride] | 0.565 µM
Nc1nc(O[C@H](c2ccc(Cl)cc2C2=CCOCC2)C(F)(F)F)cc(C2=CCC(C[C@H](N)C(=O)O)CC2)n1 (stereo partly drawn) [Example 85, (2S)-2-amino-3-(4-(2-amino-6-((R)-1-(4-chloro-2-(3,6-dihydro-2H-pyran-4-yl)phenyl)-2,2,2-trifluoroethoxy)pyrimidine-4-yl)cyclohex-3-ene-1-yl)propionic acid] | 0.94 µM
Cc1ccn(-c2cc(Cl)ccc2[C@@H](Oc2nc(N)nc3c(-c4ccc(C[C@H](N)C(=O)O)cc4)csc23)C(F)(F)F)n1 [Example 91, (S)-2-amino-3-(4-(2-amino-4-((R)-1-(4-chloro-2-(3-methyl-1H-pyrazole-1-yl)phenyl)-2,2,2-trifluoroethoxy)thieno[3,2-d]pyrimidine-7-yl)phenyl)propionic acid hydrochloride] | 0.208 µM
COc1cccc(-c2ccc([C@@H](Oc3cc(C4=CCC5(CC4)CNC(C(=O)O)C5)nc(N)n3)C(F)(F)F)cc2)c1 (stereo partly drawn) [Example 89, 8-(2-amino-6-((R)-2,2,2-trifluoro-1-(3′-methoxy-[1,1′-biphenyl]-4-yl)ethoxy)pyrimidine-4-yl)-2-azaspiro[4.5]dec-7-ene-3-carboxylic acid] | 0.409 µM
N[C@@H](Cc1ccc(-c2csc3c(OC(c4ccc(Cl)cc4-c4ccc(F)cc4)C(F)(F)F)ncnc23)cc1)C(=O)O (stereo partly drawn) [Example 46, (2S)-2-amino-3-(4-(4-(1-(5-chloro-4′-fluoro-[1,1′-biphenyl]-2-yl)-2,2,2-trifluoroethoxy)thieno[3,2-d]pyrimidine-7-yl)phenyl)propionic acid hydrochloride] | 8.72 µM
Cc1ccn(-c2cc(Cl)ccc2[C@@H](Oc2ncnc3c(-c4ccc(C[C@H](N)C(=O)O)cc4)csc23)C(F)(F)F)n1 [Example 8, (S)-2-amino-3-(4-(4-((R)-1-(4-chloro-2-(3-methyl-1H-pyrazole-1-yl)phenyl)-2,2,2-trifluoroethoxy)thieno[3,2-d]pyrimidine-7-yl)phenyl)propionic acid hydrochloride] | 0.036 µM

Second part, the compound after the results:

IC50 | Structure (SMILES)
0.297 µM | COc1cccc(-c2ccc(Cn3ccc4c(-c5ccc(C[C@H](N)C(=O)O)cc5)nc(N)nc43)cc2)c1 [Example 12, (S)-2-amino-3-(4-(2-amino-7-((3′-methoxy-[1,1′-biphenyl]-4-yl)methyl)-7H-pyrrolo[2,3-d]pyrimidine-4-yl)phenyl)propionic acid hydrochloride]
0.993 µM | CCOC(=O)[C@@H](N)Cc1ccc(-c2csc3c(O[C@H](c4ccc(Cl)cc4-n4ccc(C)n4)C(F)(F)F)ncnc23)cc1 [Example 22, ethyl (S)-2-amino-3-(4-(4-((R)-1-(4-chloro-2-(3-methyl-1H-pyrazole-1-yl)phenyl)-2,2,2-trifluoroethoxy)thieno[3,2-d]pyrimidine-7-yl)phenyl)propionate hydrochloride]
0.433 µM | Nc1nc(OC(c2ccc(Cl)cc2-c2ccccc2)C(F)(F)F)cc(C2=CCC(C[C@H](N)C(=O)O)CC2)n1 (stereo partly drawn) [Example 48, (2S)-2-amino-3-(4-(2-amino-6-(1-(5-chloro-[1,1′-biphenyl]-2-yl)-2,2,2-trifluoroethoxy)pyrimidine-4-yl)cyclohex-3-ene-1-yl)propionic acid hydrochloride]
0.194 µM | Cc1ccn(-c2cc(Cl)ccc2[C@@H](Oc2cc(C3=CCC4(CC3)CNC(C(=O)O)C4)nc(N)n2)C(F)(F)F)n1 (stereo partly drawn) [Example 80, 8-(2-amino-6-((R)-1-(4-chloro-2-(3-methyl-1H-pyrazole-1-yl)phenyl)-2,2,2-trifluoroethoxy)pyrimidine-4-yl)-2-azaspiro[4.5]dec-7-ene-3-carboxylic acid]
1.15 µM | Nc1nc(O[C@H](c2ccc(Cl)cc2C2=CCOCC2)C(F)(F)F)cc(C2=CCC3(CC2)CNC(C(=O)O)C3)n1 (stereo partly drawn) [Example 83, 8-(2-amino-6-((R)-1-(4-chloro-2-(3,6-dihydro-2H-pyran-4-yl)phenyl)-2,2,2-trifluoroethoxy)pyrimidine-4-yl)-2-azaspiro[4.5]dec-7-ene-3-carboxylic acid hydrochloride]
1.51 µM | Cc1ccn(-c2cc(Cl)ccc2[C@@H](Oc2ncnc3c(C4=CCC(C[C@H](N)C(=O)O)CC4)csc23)C(F)(F)F)n1 (stereo partly drawn) [Example 30, (2S)-2-amino-3-(4-(4-((R)-1-(4-chloro-2-(3-methyl-1H-pyrazole-1-yl)phenyl)-2,2,2-trifluoroethoxy)thieno[3,2-d]pyrimidine-7-yl)cyclohex-3-ene-1-yl)propionic acid hydrochloride]
0.443 µM | Nc1nc(O[C@H](c2ccc(Cl)cc2C2=CCC(F)(F)CC2)C(F)(F)F)cc(C2=CCC(C[C@H](N)C(=O)O)CC2)n1 (stereo partly drawn) [Example 75, (2S)-2-amino-3-(4-(2-amino-6-((R)-1-(5-chloro-4′,4′difluoro-2′,3′,4′,5′-tetrahydro-[1,1′-biphenyl]-2-yl)-2,2,2-trifluoroethoxy)pyrimidine-4-yl)cyclohex-3-ene-1-yl)propionic acid hydrochloride]

Same assay, conditions: TPH1 enzyme, 4 hours at 4° C., ex 300 nm / em 360 nm; hydrochloride

IC50 | Structure (SMILES)
0.114 µM | Cc1ccn(-c2cc(Cl)ccc2[C@@H](Oc2cc(C3=CCC(C[C@H](N)C(=O)O)CC3)nc(N)n2)C(F)(F)F)n1 (stereo partly drawn) [Example 31, (2S)-2-amino-3-(4-(2-amino-6-((R)-1-(4-chloro-2-(3-methyl-1H-pyrazole-1-yl)phenyl)-2,2,2-trifluoroethoxy)pyrimidine-4-yl)cyclohex-3-ene-1-yl)propionic acid hydrochloride]
0.125 µM | Nc1nc(O[C@H](c2ccc(Cl)cc2C2=CCCOC2)C(F)(F)F)cc(C2=CCC(C[C@H](N)C(=O)O)CC2)n1 (stereo partly drawn) [Example 66, (2S)-2-amino-3-(4-(2-amino-6-((R)-1-(4-chloro-2-(5,6-dihydro-2H-pyran-3-yl)phenyl)-2,2,2-trifluoroethoxy)pyrimidine-4-yl)cyclohex-3-ene-1-yl)propionic acid hydrochloride]
0.263 µM | N[C@@H](Cc1ccc(-c2csc3c(O[C@H](c4ccc(Cl)cc4C4=CCCOC4)C(F)(F)F)ncnc23)cc1)C(=O)O [Example 69, (S)-2-amino-3-(4-(4-((R)-1-(4-chloro-2-(5,6-dihydro-2H-pyran-3-yl)phenyl)-2,2,2-trifluoroethoxy)thieno[3,2-d]pyrimidine-7-yl)phenyl)propionic acid hydrochloride]
0.185 µM | Cc1ccn(-c2cc(Cl)ccc2[C@@H](Oc2cc(C3=CCC4(CC3)CNC(C(=O)O)C4)nc(N)n2)C(F)(F)F)n1 (stereo partly drawn) [Example 79, 8-(2-amino-6-((R)-1-(4-chloro-2-(3-methyl-1H-pyrazole-1-yl)phenyl)-2,2,2-trifluoroethoxy)pyrimidine-4-yl)-2-azaspiro[4.5]dec-7-ene-3-carboxylic acid hydrochloride]
